Results as given in patent US20050277645A1, “Sleep inducing compounds and methods relating thereto” (Neurocrine Biosciences, Inc., priority 2004, published 2005).

Target: T1, human H1 receptor (Homo sapiens, UniProt P35367)
T1 construct: expressed in transfected cells; host or cells: CHO cells (crude membranes)
Experiment: Human histamine H1 receptor binding assay
Conditions: competition with 1.5 nM [pyridinyl-5-3H]Pyrilamine, crude membranes of CHO cells transfected with human H1 receptor; Ki from IC50 by Cheng-Prusoff
Procedure: Compounds of the present invention may be evaluated for binding to the histamine H1 receptor by a standard binding assay. […] Non-specific binding is determined in the presence of excess (1 μM) doxepin. Bound and free ligand are separated by rapid vacuum filtration using a Packard 96-well cell harvester onto UniFilter GF/C filter plates (PerkinElmer) that has been pretreated with 1% polyethyleneimine. The filter plates are then washed with 600 μl phosphate buffered saline containing 0.01% (v/v) Triton-X100. Bound radioligand is determined by scintillation counting using a TopCount-NXT (Packard). Binding data is analyzed by nonlinear, least-squares curve fitting algorithms using GraphPad Prism (GraphPad Software, Inc. San Diego, Calif.) or ActivityBase (IDBS, Guildford, Surrey, UK).

T1 sequence (P35367 whole entry): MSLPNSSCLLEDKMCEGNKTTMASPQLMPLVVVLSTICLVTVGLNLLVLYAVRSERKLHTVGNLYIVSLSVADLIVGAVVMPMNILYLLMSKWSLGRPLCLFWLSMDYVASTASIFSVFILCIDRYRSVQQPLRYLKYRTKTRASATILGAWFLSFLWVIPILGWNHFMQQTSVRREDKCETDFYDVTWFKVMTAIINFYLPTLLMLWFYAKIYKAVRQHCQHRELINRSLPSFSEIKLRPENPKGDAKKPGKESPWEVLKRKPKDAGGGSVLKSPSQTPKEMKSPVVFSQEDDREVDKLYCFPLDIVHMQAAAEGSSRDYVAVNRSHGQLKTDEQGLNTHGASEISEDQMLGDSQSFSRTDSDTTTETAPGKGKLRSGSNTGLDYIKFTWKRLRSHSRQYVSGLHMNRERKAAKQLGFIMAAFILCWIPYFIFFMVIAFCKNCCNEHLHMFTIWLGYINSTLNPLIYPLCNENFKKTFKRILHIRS

Ki, ≤ 0.25 µM:
c1ccc2c(c1)CC(CCN1CCCC1)=C2Cc1cnccn1 [21-7]
CNCCC1=C(C(C)c2cnccn2)c2ccc(C)cc2C1 (stereo not shown) [15-5]
Fc1ccc2c(c1)CC(CCN1CCC1)=C2Cc1cccnn1 [20-1, 3-[2-(2-azetidin-1-yl-ethyl)-5-fluoro-3H-inden-1-ylmethyl]-pyridazine]
CC(C1=C(CCN(C)C)Cc2ccccc21)c1ncc(-c2ccccc2)s1 (stereo not shown) [10-1, dimethyl-(2-{3-[1-(5-phenyl-thiazol-2-yl)-ethyl]-1H-inden-2-yl}-ethyl)-amine]
CNCCC1=C(Cc2cnccn2)c2ccccc2C1 [15-4, methyl-[2-(3-pyrazin-2-ylmethyl-1H-inden-2-yl)-ethyl]-amine]
COc1ccc2c(c1)CC(CCN1CCCC1)=C2Cc1cnccn1 [21-5]
COc1ccc2c(c1)CC(CCN1CCCC1)=C2Cc1cccnn1 [21-6]
CC(C1=C(CCN(C)C)Cc2ccccc21)c1ncc(-c2ccccc2)o1 (stereo not shown) [9-1, dimethyl-(2-{3-[1-(5-phenyl-oxazol-2-yl)-ethyl]-1H-inden-2-yl}-ethyl)-amine]
COc1ccc2c(c1)CC(CCN(C)C)=C2Cc1cccnn1 [4-42]
CC(C(=O)OC(C)(C)C)C1=C(CCN(C)C)Cc2ccccc21 (stereo not shown) [7-1, 2-[2-(2-dimethylamino-ethyl)-3H-inden-1-yl]-propionic acid tert-butyl ester]
Cc1nnc(C(C)C2=C(CCN(C)C)Cc3ccccc32)o1 (stereo not shown) [8-1, dimethyl-(2-{3-[1-(5-methyl-[1,3,4]oxadiazol-2-yl)-ethyl]-1H-inden-2-yl}-ethyl)-amine]
CC(C1=NCCO1)C1=C(CCN(C)C)Cc2ccccc21 (stereo not shown) [13-1, (2-{3-[1-(4,5-dihydro-oxazol-2-yl)-ethyl]-1H-inden-2-yl}-ethyl)-dimethyl-amine]
CC(C1=C(CCN(C)C)Cc2ccccc21)c1nnc(-c2ccccc2)s1 (stereo not shown) [14-2]
Cc1ccc2c(c1)CC(CCN(C)C)=C2Cc1cccnn1 [4-25]
O[C@@H]1CCN(CCC2=C(Cc3cccnn3)c3ccc(F)cc3C2)C1 [19-3]
CN(CCO)CCC1=C(Cc2cnccn2)c2ccccc2C1 [16-3]
O[C@H]1CCN(CCC2=C(Cc3cccnn3)c3ccc(F)cc3C2)C1 [19-4]
CC1CN=C(C(C)C2=C(CCN(C)C)Cc3ccccc32)O1 (stereo not shown) [12-1, dimethyl-(2-{3-[1-(5-methyl-4,5-dihydro-oxazol-2-yl)-ethyl]-1H-inden-2-yl}-ethyl)-amine]
Cc1nnc(C(C)C2=C(CCN(C)C)Cc3ccccc32)s1 (stereo not shown) [14-1, dimethyl-(2-{3-[1-(5-methyl-[1,3,4]thiadiazol-2-yl)-ethyl]-1H-inden-2-yl}-ethyl)-amine]
CCC(C1=C(CCN(C)C)Cc2cc(F)ccc21)c1nccnc1OC (stereo not shown) [4-39]
CC(CC1=C(Cc2cccnn2)c2ccccc2C1)N1CCCC1 (stereo not shown) [18-5]
COc1ccc2c(c1)CC(CCN1CCOCC1)=C2Cc1cnccn1 [21-9]
CCOc1nccnc1C(C)C1=C(CCN(C)C)Cc2cc(F)ccc21 (stereo not shown) [4-38]
CCCN(C)CCC1=C(Cc2cnccn2)c2ccccc2C1 [16-2]
Cc1csc([C@H](C)C2=C(CCN(C)C)Cc3cc(Cl)ccc32)n1 [22-5]
CC(C1=C(CCN(C)C)Cc2cc(Cl)ccc21)c1nccs1 (single isomer, unassigned) [23-2, {2-[6-chloro-3-(1-thiazol-2-yl-ethyl)-1H-inden-2-yl]-ethyl}-dimethyl-amine]
c1ccc2c(c1)CC(CCN1CCC1)=C2Cc1cnccn1 [21-10]
Cc1cnc(C(C)C2=C(CCN(C)C)Cc3ccccc32)s1 (stereo not shown) [10-2, dimethyl-(2-{3-[1-(5-methyl-thiazol-2-yl)-ethyl]-1H-inden-2-yl}-ethyl)-amine]
CC(CC1=C(Cc2cnccn2)c2ccccc2C1)N(C)C (stereo not shown) [18-1, dimethyl-[1-methyl-2-(3-pyrazin-2-ylmethyl-1H-inden-2-yl)-ethyl]-amine]
CC(C#N)C1=C(CCN(C)C)Cc2cc(Cl)ccc21 (stereo not shown) [23-1, 2-[5-chloro-2-(2-dimethylamino-ethyl)-3H-inden-1-yl]-propionitrile]
COc1nccnc1[C@@H](C)C1=C(CCN(C)C)Cc2cc(Cl)ccc21 [4-22]
Fc1ccc2c(c1)CC(CCN1CCOCC1)=C2Cc1cccnn1 [19-2]
COc1ccc2c(c1)CC(CCN1CCC1)=C2[C@@H](C)c1cnccn1 [21-2]
CN(C)CCC1=C(C(C)(C)c2cnccn2)c2ccccc2C1 [4-12]
CC(C1=C(CCN(C)C)Cc2ccccc21)c1ccncn1 (stereo not shown) [4-2]
Cc1cnc(C(C)C2=C(CCN(C)C)Cc3ccccc32)o1 (stereo not shown) [11-1]
CCN(C)CCC1=C(Cc2cnccn2)c2ccccc2C1 [16-1, ethyl-methyl-[2-(3-pyrazin-2-ylmethyl-1H-inden-2-yl)-ethyl]-amine]
COc1nccnc1C(C)C1=C(CCN(C)C)Cc2cc(Cl)ccc21 (stereo not shown) [4-20]
c1cnnc(CC2=C(CCN3CCCC3)Cc3ccccc32)c1 [21-8]
CCOc1nccnc1CC1=C(CCN(C)C)Cc2ccccc21 [4-16]
Fc1ccc2c(c1)CC(CCN1CCCC1)=C2Cc1cccnn1 [19-1, 3-[5-fluoro-2-(2-pyrrolidin-1-yl-ethyl)-3H-inden-1-ylmethyl]-pyridazine]
COc1ccc2c(c1)C(C(C)c1nccs1)=C(CCN(C)C)C2 (single isomer, unassigned) [25-2, {2-[5-methoxy-3-(1-thiazol-2-yl-ethyl)-1H-inden-2-yl]-ethyl}-dimethyl-amine]
CC(C1=C(CCN(C)C)Cc2ccccc21)c1nnc(-c2ccccc2)o1 (stereo not shown) [8-2]
CCCOc1cncc(CC2=C(CCN(C)C)Cc3ccccc32)n1 [4-17]
CNCCC1=C([C@@H](C)c2cnccn2)c2ccccc2C1 [15-2, methyl-{2-[3-((R)-1-pyrazin-2-yl-ethyl)-1H-inden-2-yl]-ethyl}-amine]
CC(CC1=C(Cc2cnccn2)c2ccccc2C1)N1CCCC1 (stereo not shown) [18-4]
COCC(C)C1=C(CCN(C)C)Cc2ccccc21 (stereo not shown) [6-2]
CNCCC1=C(C(C)c2nc(C)cs2)c2ccccc2C1 (stereo not shown) [15-6]
COc1nccnc1[C@H](C)C1=C(CCN(C)C)Cc2cc(Cl)ccc21 [4-23]
COc1ccc2c(c1)CC(CCN1CCC1)=C2C(C)c1cnccn1 (stereo not shown) [21-1, 2-{1-[2-(2-azetidin-1-yl-ethyl)-5-methoxy-3H-inden-1-yl]-ethyl}-pyrazine]
CCOCC(C)C1=C(CCN(C)C)Cc2ccccc21 (stereo not shown) [6-1, {2-[3-(2-ethoxy-1-methyl-ethyl)-1H-inden-2-yl]-ethyl}-dimethyl-amine]
COC(=O)C(C)C1=C(CCN(C)C)Cc2ccccc21 (stereo not shown) [7-3]
